Results reported in ChEMBL document CHEMBL3885881, “DrugMatrix”.

Species: Rattus norvegicus
Experiment: DrugMatrix - Regimen: Daily Repeat
Assay type: toxicity, organism-based, Sprague-Dawley
Parameters: regimen Daily Repeat, gender Male, age 6-8 weeks
Conditions: in vivo, po, route oral GAVAGE, vehicle .5 % CMC; for ABSOLUTE BASOPHIL / ABSOLUTE EOSINOPHIL / ABSOLUTE LYMPHOCYTE / ABSOLUTE MONOCYTE / ABSOLUTE SEGMENTED NEUTROPHIL / BASOPHIL / EOSINOPHIL / ERYTHROCYTE COUNT / HEMATOCRIT / HEMOGLOBIN / LEUKOCYTE COUNT / LYMPHOCYTE / MEAN CORPUSCULAR HEMOGLOBIN / MEAN CORPUSCULAR HEMOGLOBIN CONCENTRATION / MEAN CORPUSCULAR VOLUME / MONOCYTE / NEUTROPHIL / NUCLEATED RED BLOOD CELLS / PLATELET COUNT: tissue Blood; for ALANINE AMINOTRANSFERASE / ALBUMIN / ALKALINE PHOSPHATASE / ASPARTATE AMINOTRANSFERASE / BLOOD UREA NITROGEN / CARBON DIOXIDE / CHLORIDE / CHOLESTEROL / CREATINE PHOSPHOKINASE / CREATININE / GLUCOSE / LACTATE DEHYDROGENASE / LIPASE / PHOSPHORUS / POTASSIUM / SODIUM / TOTAL BILIRUBIN / TOTAL PROTEIN / URIC ACID: tissue Plasma
[1] = 40 mg/kg, 120 h, dose level Low, time 5 day
[2] = 1200 mg/kg, 72 h, dose level High, time 3 day
[3] = 1200 mg/kg, 120 h, dose level High, time 5 day

SMILES: C[C@@](Cc1ccc(O)c(O)c1)(NN)C(=O)O.O [CARBIDOPA]
- ABSOLUTE BASOPHIL [1]: 0 CELLS/uL
- ABSOLUTE EOSINOPHIL [1]: 155.33 CELLS/uL
- ABSOLUTE LYMPHOCYTE [1]: 12037.67 CELLS/uL
- ABSOLUTE MONOCYTE [1]: 0 CELLS/uL
- ABSOLUTE SEGMENTED NEUTROPHIL [1]: 1407 CELLS/uL
- BASOPHIL [1]: 0%
- EOSINOPHIL [1]: 1%
- ERYTHROCYTE COUNT [1]: 5.47 x10E6/uL
- HEMATOCRIT [1]: 34.83%
- HEMOGLOBIN [1]: 13.23 G/DL
- LEUKOCYTE COUNT [1]: 13.6 x10E3/uL
- LYMPHOCYTE [1]: 88.33%
- MEAN CORPUSCULAR HEMOGLOBIN [1]: 24.23 pg
- MEAN CORPUSCULAR HEMOGLOBIN CONCENTRATION [1]: 38 G/DL
- MEAN CORPUSCULAR VOLUME [1]: 63.7 fL
- MONOCYTE [1]: 0%
- NEUTROPHIL [1]: 10.67%
- NUCLEATED RED BLOOD CELLS [1]: 0 /100WBC
- PLATELET COUNT [1]: 1237.67 x10E3/uL
- ALANINE AMINOTRANSFERASE [1]: 28.67 u/L
- ALBUMIN [1]: 4.33 G/DL
- ALKALINE PHOSPHATASE [1]: 366.33 u/L
- ASPARTATE AMINOTRANSFERASE [1]: 83 u/L
- BLOOD UREA NITROGEN [1]: 16 mg/dL
- CARBON DIOXIDE [1]: 26 mmol/L
- CHLORIDE [1]: 102.33 MEQ/L
- CHOLESTEROL [1]: 65.67 mg/dL
- CREATINE PHOSPHOKINASE [1]: 277.33 u/L
- CREATININE [1]: 0.2 mg/dL
- GLUCOSE [1]: 155.67 mg/dL
- LACTATE DEHYDROGENASE [1]: 251 u/L
- LIPASE [1]: 8.33 u/L
- PHOSPHORUS [1]: 12.53 mg/dL
- POTASSIUM [1]: 6.15 MEQ/L
- SODIUM [1]: 144.4 MEQ/L
- TOTAL BILIRUBIN [1]: 0.2 mg/dL
- TOTAL PROTEIN [1]: 6.03 G/DL
- URIC ACID [1]: 1.4 mg/dL
- ABSOLUTE BASOPHIL [2]: 0 CELLS/uL
- ABSOLUTE EOSINOPHIL [2]: 309.67 CELLS/uL
- ABSOLUTE LYMPHOCYTE [2]: 11320 CELLS/uL
- ABSOLUTE MONOCYTE [2]: 0 CELLS/uL
- ABSOLUTE SEGMENTED NEUTROPHIL [2]: 1103.67 CELLS/uL
- BASOPHIL [2]: 0%
- EOSINOPHIL [2]: 2.33%
- ERYTHROCYTE COUNT [2]: 5.55 x10E6/uL
- HEMATOCRIT [2]: 35.43%
- HEMOGLOBIN [2]: 13.47 G/DL
- LEUKOCYTE COUNT [2]: 12.73 x10E3/uL
- LYMPHOCYTE [2]: 88.67%
- MEAN CORPUSCULAR HEMOGLOBIN [2]: 24.3 pg
- MEAN CORPUSCULAR HEMOGLOBIN CONCENTRATION [2]: 38.03 G/DL
- MEAN CORPUSCULAR VOLUME [2]: 63.83 fL
- MONOCYTE [2]: 0%
- NEUTROPHIL [2]: 9%
- NUCLEATED RED BLOOD CELLS [2]: 0 /100WBC
- PLATELET COUNT [2]: 1345.33 x10E3/uL
- ALANINE AMINOTRANSFERASE [2]: 8.67 u/L
- ALBUMIN [2]: 4.63 G/DL
- ALKALINE PHOSPHATASE [2]: 300.67 u/L
- ASPARTATE AMINOTRANSFERASE [2]: 64.67 u/L
- BLOOD UREA NITROGEN [2]: 22.33 mg/dL
- CARBON DIOXIDE [2]: 26 mmol/L
- CHLORIDE [2]: 99 MEQ/L
- CHOLESTEROL [2]: 92.33 mg/dL
- CREATINE PHOSPHOKINASE [2]: 315 u/L
- CREATININE [2]: 0.24 mg/dL
- GLUCOSE [2]: 171.33 mg/dL
- LACTATE DEHYDROGENASE [2]: 80 u/L
- LIPASE [2]: 8.67 u/L
- PHOSPHORUS [2]: 12.73 mg/dL
- POTASSIUM [2]: 6.79 MEQ/L
- SODIUM [2]: 143.93 MEQ/L
- TOTAL BILIRUBIN [2]: 0.17 mg/dL
- TOTAL PROTEIN [2]: 6.5 G/DL
- URIC ACID [2]: 1.6 mg/dL
- ABSOLUTE BASOPHIL [3]: 0 CELLS/uL
- ABSOLUTE EOSINOPHIL [3]: 0 CELLS/uL
- ABSOLUTE LYMPHOCYTE [3]: 11666 CELLS/uL
- ABSOLUTE MONOCYTE [3]: 86.67 CELLS/uL
- ABSOLUTE SEGMENTED NEUTROPHIL [3]: 847.33 CELLS/uL
- BASOPHIL [3]: 0%
- EOSINOPHIL [3]: 0%
- ERYTHROCYTE COUNT [3]: 6.03 x10E6/uL
- HEMATOCRIT [3]: 37.47%
- HEMOGLOBIN [3]: 14.13 G/DL
- LEUKOCYTE COUNT [3]: 12.6 x10E3/uL
- LYMPHOCYTE [3]: 92.33%
- MEAN CORPUSCULAR HEMOGLOBIN [3]: 23.43 pg
- MEAN CORPUSCULAR HEMOGLOBIN CONCENTRATION [3]: 37.7 G/DL
- MEAN CORPUSCULAR VOLUME [3]: 62.1 fL
- MONOCYTE [3]: 0.67%
- NEUTROPHIL [3]: 7%
- NUCLEATED RED BLOOD CELLS [3]: 0 /100WBC
- PLATELET COUNT [3]: 1184.67 x10E3/uL
- ALANINE AMINOTRANSFERASE [3]: 6.67 u/L
- ALBUMIN [3]: 4.57 G/DL
- ALKALINE PHOSPHATASE [3]: 323.33 u/L
- ASPARTATE AMINOTRANSFERASE [3]: 44 u/L
- BLOOD UREA NITROGEN [3]: 20 mg/dL
- CARBON DIOXIDE [3]: 28 mmol/L
- CHLORIDE [3]: 101.33 MEQ/L
- CHOLESTEROL [3]: 58.67 mg/dL
- CREATINE PHOSPHOKINASE [3]: 151.67 u/L
- CREATININE [3]: 0.21 mg/dL
- GLUCOSE [3]: 157.67 mg/dL
- LACTATE DEHYDROGENASE [3]: 98 u/L
- LIPASE [3]: 8 u/L
- PHOSPHORUS [3]: 11.57 mg/dL
- POTASSIUM [3]: 6.41 MEQ/L
- SODIUM [3]: 146.5 MEQ/L
- TOTAL BILIRUBIN [3]: 0.17 mg/dL
- TOTAL PROTEIN [3]: 6.27 G/DL
- URIC ACID [3]: 1.5 mg/dL
